Source: patent US8557992B2, “Heterocyclic fused phenanthrolinone M1 receptor positive allosteric modulators” (Merck Sharp & Dohme Corp., priority 2010, dated 2013)
pEC50: −log10 of the molar value. Like-named read-outs stand apart in the source and are kept apart here.

Biological target: T1, acetylcholine muscarinic M1 receptor (hM1) (Homo sapiens, UniProt P11229)
T1 construct: expressed in transfected cells; host or cells: CHOnfat (CHO cells, Geneticin selection)
T1 sequence (P11229 1-460): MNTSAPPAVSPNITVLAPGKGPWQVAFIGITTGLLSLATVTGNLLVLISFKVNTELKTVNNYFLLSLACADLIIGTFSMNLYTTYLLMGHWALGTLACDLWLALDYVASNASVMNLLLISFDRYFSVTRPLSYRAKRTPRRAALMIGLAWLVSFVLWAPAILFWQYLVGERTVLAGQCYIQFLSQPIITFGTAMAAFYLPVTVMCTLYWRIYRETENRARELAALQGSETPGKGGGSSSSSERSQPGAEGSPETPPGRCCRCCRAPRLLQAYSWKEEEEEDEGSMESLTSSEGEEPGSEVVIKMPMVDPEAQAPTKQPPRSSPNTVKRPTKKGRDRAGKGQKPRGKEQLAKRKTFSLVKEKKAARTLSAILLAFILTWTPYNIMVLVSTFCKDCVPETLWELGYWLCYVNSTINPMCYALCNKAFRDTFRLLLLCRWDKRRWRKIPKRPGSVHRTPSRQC
Assay: FLIPR intracellular calcium assay for M1 positive allosteric modulator activity in CHOnfat/hM1 cells
Format: cell-based
Procedure: The assay studies the effect of one or several concentrations of test compounds on basal or acetylcholine-stimulated Ca^2+ levels using FLIPR.
Compounds are prepared and subjected to a preincubation period of 4 min. Thereafter, a single EC20 concentration of acetylcholine is added to each well (3 nM final). The intracellular Ca^2+ level of each sample is measured and compared to an acetylcholine control to determine any modulatory activity.
Cells: CHOnfat/hM1, hM2, hM3 or hM4 cells are plated 24 hr before the assay at a density of 18,000 cells/well (100 μL) in a 384 well plate. CHOnfat/hM1 and CHOnfat/hM3 Growth Medium: 90% DMEM (Hi Glucose); 10% HI FBS; 2 mM L-glutamine; 0.1 mM NEAA; Pen-Strep; and 1 mg/ml Geneticin, are added. For M2Gqi5CHOnfat and M4Gqi5CHOnfat cells, an additional 600 ug/ml hygromycin is added.
Equipment: 384 well plate, 120 μL addition plate; 96-well Whatman 2 ml Uniplate Incubator, 37° C., 5% CO2; Skatron EMBLA-384 Plate Washer; Multimek Pipetting System; Genesis Freedom 200 System; Mosquito System; Temo Nanolitre Pipetting System; and FLIPR^384 Fluorometric Imaging Plate Reader System are used.
Buffers. Assay Buffer: […] Balanced Salt Solution, with 20 mM Hepes, 2.5 mM Probenecid (Sigma P-8761) first dissolved in 1 N NaOH, 1% Bovine Serum Albumin (Sigma A-9647). Dye Loading Buffer: Assay Buffer plus 1% Fetal Bovine Serum and Fluo-4AM/Pluronic Acid Mixture. 2 mM Fluo-4AM ester stock in DMSO (Molecular Probes F-14202) Concentration of 2 μM in buffer for a final concentration of 1 μM in Assay. 20% Pluronic Acid Solution stock, with concentration of 0.04% in Buffer, 0.02% in Assay.
65 μL of 2 mM Fluo-4AM are mixed with 130 μL of 20% Pluronic Acid. The resulting solution and 650 μL FBS is added to the assay buffer for a total volume of 65 mL. Positive Controls: 4-Br-A23187: 10 mM in DMSO; final concentration 10 μM. Acetylcholine: 10 mM in water, working stock at both 20 μM and 30 μM in assay buffer, final concentration of 10 μM. This is used to check the maximum stimulation of the CHOK1/hM1 cells. 20 μM (2×) acetylcholine is added in the preincubation part of the assay, and the 30 μM (3×) stock is added in the second part. (EC20) Acetylcholine: 10 mM in water, working stock of 9 nM (3×), and final concentration in assay is 3 nM. This is used after the preincubation with test compounds. Addition of the EC20 Acetylcholine to each well with a test compound will ascertain any modulator activity. 24 wells contain 3 nM Acetylcholine alone as a control.
Screening Plate Compounds are titrated in 96-well plates (columns 2-11), 100% DMSO, started at a concentration of 15 mM (150× stock concentration), and 3-fold serial dilutions using Genesis Freedom200 System. Four 96-well plates are combined into a 384-well plate using Mosquito Nanolitre Pipetting System by transferring 1 μl of serial diluted compounds to each well, and 1 mM acetylcholine (100× stock concentration) were added as a control. Using Temo, 49 μl assay buffer is added to each well of the 384-well plate right before assay.
In a 96-well Whatman 2 ml Uniplate, 9 nM Acetylcholine (3×) is pipetted into wells corresponding to the screening compounds, and into control wells. The 30 μM acetylcholine control (3×) is added into control wells, and the 3× agonist plate is transferred into a 384 well plate.
Cells are washed three times with 100 μL of buffer, leaving 30 μL of buffer in each well. Using Multimek, 30 μL of Dye Loading Buffer is added into each well and incubated at 37° C., 5% CO2 for up to one hr.
After 60 min, the cells are washed three times with 100 μL of buffer, leaving 30 μL of buffer in each well. The cell plate, screening plate, and agonist addition plates are placed on the platform in the FLIPR and the door closed. A signal test to check background fluorescence and basal fluorescence signal is performed. Laser intensity is adjusted if necessary. […]

[1] = Table 1, unit inferred, potentiation of acetylcholine EC20 (3 nM final), read-out: H Pot.
[2] = 4 min preincubation, then acetylcholine EC20 (3 nM final), calculated from FLIPR values, read-out: IP Value (inflection point)

Structure (SMILES) | pEC50 [1] | pEC50 [2]
COc1cc(Cc2cc3c(=O)n([C@H]4CCCC[C@@H]4O)ccc3c3ncccc23)ccn1 [Example 10] | 7.66 | 
COc1ccc(Cc2cc3c(=O)n([C@H]4CCOC[C@@H]4O)ccc3c3ncccc23)cc1 [Example 8] | 8.21 | 
O=c1c2cc(Cc3cccnc3)c3cccnc3c2ccn1[C@H]1CCCC[C@@H]1O [Example 6, 8-[(1S,2S)-2-hydroxycyclohexyl]-5-(pyridin-3-ylmethyl)-1,8-phenanthrolin-7(8H)-one] |  | 7.54
O=c1c2cc(Cc3ccc(Cl)nc3)c3cccnc3c2ccn1[C@H]1CCCC[C@@H]1O [Example 1, 5-[(6-Chloropyridin-3-yl)methyl]-8-[(1S,2S)-2-hydroxycyclohexyl]-1,8-phenanthrolin-7(8H)-one] |  | 7.63
Cn1cc(-c2ccc(Cc3cc4c(=O)n([C@H]5CCCC[C@@H]5O)ccc4c4ncccc34)cn2)cn1 [Example 5] |  | 8.77
COc1ccc(Cc2cc3c(=O)n([C@H]4CCCC[C@@H]4O)ccc3c3ncccc23)cc1 [Example 7] | 7.68 | 
CSc1ccc(Cc2cc3c(=O)n([C@H]4CCCC[C@@H]4O)ccc3c3ncccc23)cn1 [Example 3] |  | 7.82
Cc1cc(Cc2cc3c(=O)n([C@H]4CCCC[C@@H]4O)ccc3c3ncccc23)ccn1 [Example 12] | 7.62 | 
O=c1c2cc(Cc3ccc(OC(F)F)nc3)c3cccnc3c2ccn1[C@H]1CCCC[C@@H]1O [Example 13] | 7.26 | 
Cc1cc(Cc2cc3c(=O)n([C@H]4CCOC[C@@H]4O)ccc3c3ncccc23)ccn1 [Example 14] | 7.77 | 
O=c1c2cc(Cc3ccnc(Cl)c3)c3cccnc3c2ccn1[C@H]1CCCC[C@@H]1O [Example 11] | 7.69 | 
COc1ccc(Cc2cc3c(=O)n([C@H]4CCOC[C@@H]4O)ccc3c3ncccc23)cn1 [Example 2, 1,5-Anhydro-2,3-dideoxy-3-{5-[(6-methoxypyridin-3-yl)methyl]-7-oxo-1,8-phenanthrolin-8(7H)-yl}-L-threo-pentitol] |  | 7.69
COc1ccc(Cc2cc3c(=O)n([C@H]4CCCC[C@@H]4O)ccc3c3ncccc23)cn1 [Example 9] | 7.65 | 
O=c1c2cc(Cc3ccnc(OC(F)F)c3)c3cccnc3c2ccn1[C@H]1CCCC[C@@H]1O [Example 4] |  | 7.14
